Data set [1] has as its target T1, hA3 (Homo sapiens, UniProt P0DMS8).
T1 construct: expressed in transfected cells; host or cells: CHO cells (stably transfected)
T1 sequence (P0DMS8 1-318): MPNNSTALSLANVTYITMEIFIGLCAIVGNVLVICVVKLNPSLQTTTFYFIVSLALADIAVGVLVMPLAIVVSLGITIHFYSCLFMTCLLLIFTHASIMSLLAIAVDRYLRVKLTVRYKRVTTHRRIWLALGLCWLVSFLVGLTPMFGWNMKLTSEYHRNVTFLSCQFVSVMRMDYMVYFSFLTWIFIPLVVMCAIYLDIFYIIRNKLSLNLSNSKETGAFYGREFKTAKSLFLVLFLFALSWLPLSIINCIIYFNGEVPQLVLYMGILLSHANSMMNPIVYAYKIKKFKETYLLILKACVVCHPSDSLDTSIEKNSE
Kind of data set: Radioligand competition binding, [3H]HEMADO, hA3 in CHO cells. Particulars: [3H]HEMADO 1 nM, geometric mean of 3 experiments (95% CI). The protocol: (§1) (5′-N-ethylcarboxamidoadenosine) to hA2A; and specific binding of [^3H]HEMADO (2-(1-hexynyl)-N^6-methyladenosine) to hA3. […] Due to the lack of a suitable radioligand for the hA2B receptor, the potency of antagonists at the hA2B receptor was determined by inhibition of NECA-stimulated adenylyl cyclase activity with increasing concentrations of antagonist.
(§2) The binding affinity for hA1, hA2A, hA3 of the synthetized compounds was evaluated using radioligand competition experiments in CHO cells that were stably transfected with the individual receptor subtypes. […] Due to the lack of a suitable radioligand for the hA2B receptor, the potency of antagonists at the hA2B receptor (expressed on CHO cells) was determined by inhibition of NECA-stimulated adenylyl cyclase activity. The IC50 for inhibition of cAMP (cyclic adenosine monophosphate) production was determined and converted to Ki values using the Cheng and Prusoff equation [56].
(§3) Ki values (dissociation constants) were determined in radioligand competition experiments with 7–8 different concentrations of test compound and each concentration was tested in duplicate. […] The program Prism 6 (GraphPad Software) was used for the analysis of the competition curves.
A general note: Loss of bound radioactivity is the signal in a displacement assay; it reports binding, not function.

Data set [2] has as its target hA1 (Homo sapiens, UniProt P30542). Kind of data set: biochemical. The protocol: as §1, §2, §3
Data set [3] has as its target T2, hA2A (Homo sapiens, UniProt P29274).
T2 construct: expressed in transfected cells; host or cells: CHO cells (stably transfected)
The data set can be described thus: Radioligand competition binding, [3H]NECA, hA2A in CHO cells. The following applies: [3H]NECA 10 nM. The protocol:
as §1, §2, §3

Data set [4] concerns the target T1, hA3. Particulars: radioligand used at 1 nM; ref [44],[45]; cited from earlier work.

Some results are limits rather than exact numbers.

hA1, sequence (P30542 whole entry): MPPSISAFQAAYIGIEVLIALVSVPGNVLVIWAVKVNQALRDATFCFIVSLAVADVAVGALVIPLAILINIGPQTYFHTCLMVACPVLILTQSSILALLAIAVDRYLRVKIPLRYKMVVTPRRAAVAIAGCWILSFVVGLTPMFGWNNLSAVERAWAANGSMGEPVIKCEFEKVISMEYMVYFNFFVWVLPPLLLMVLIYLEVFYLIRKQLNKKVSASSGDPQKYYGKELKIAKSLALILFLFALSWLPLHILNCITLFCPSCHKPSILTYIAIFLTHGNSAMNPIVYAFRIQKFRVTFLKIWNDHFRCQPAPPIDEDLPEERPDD
T2 sequence (P29274 whole entry): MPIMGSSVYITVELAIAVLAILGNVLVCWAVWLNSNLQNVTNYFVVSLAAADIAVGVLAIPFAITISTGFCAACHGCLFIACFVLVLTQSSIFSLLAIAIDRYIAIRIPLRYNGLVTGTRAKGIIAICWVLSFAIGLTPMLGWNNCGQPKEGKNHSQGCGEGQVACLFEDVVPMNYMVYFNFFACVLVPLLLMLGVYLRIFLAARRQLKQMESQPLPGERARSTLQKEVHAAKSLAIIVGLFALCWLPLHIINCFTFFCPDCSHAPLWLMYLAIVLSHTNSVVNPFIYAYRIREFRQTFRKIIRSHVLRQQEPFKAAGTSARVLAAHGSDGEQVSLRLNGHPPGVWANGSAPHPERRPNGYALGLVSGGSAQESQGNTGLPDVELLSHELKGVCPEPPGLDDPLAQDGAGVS

Consider `O=C(c1ccc(O)c(O)c1)c1cc2ccccc2oc1=O` [Compound 5], for which the Ki in data set [1] stood at 34.5 µM; in data set [2] it was 39.5 µM.

Consider `O=C(c1ccc(O)c(O)c1)c1cc2c(O)cc(O)cc2oc1=O` [Compound 7], for which the results for the Ki in data set [1] and in data set [2] were over 30 µM and 17.7 µM, respectively.

The compound `COc1ccc2oc(=O)c(C(=O)c3ccc(OC)c(OC)c3)cc2c1` [Compound 2, 6-Methoxy-3-(3′,4′-dimethoxybenzoyl)coumarin] displayed a melting point of 202 to 203 °C. This compound also showed a Ki in data set [1] of over 100 µM. In addition, the Ki in data set [3] was over 100 µM. Further, the Ki in data set [2] is over 100 µM.

In the case of `O=C(c1ccc(O)c(O)c1)c1cc2cc(O)ccc2oc1=O` [Compound 6], the inhibition constant Ki in data set [1] was over 60 µM; in data set [2], 54 µM.

For the compound `CCCCC#Cc1nc(NC)c2ncn([C@@H]3O[C@H](CO)[C@@H](O)[C@H]3O)c2n1` [[^3H]HEMADO, 2-(1-hexynyl)-N^6-methyladenosine], the Kd in data set [4] is 0.0012 µM.

Turning to `COc1ccc(C(=O)c2cc3ccccc3oc2=O)cc1OC` [Compound 1, 3-(3′,4′-Dimethoxybenzoyl)coumarin], the melting point was in the range of 190 to 191 °C. The Ki in data set [1] is over 100 µM. This compound also yielded a Ki in data set [3] of over 100 µM. The same compound showed a Ki in data set [2] of over 100 µM.

The compound `O=C(c1ccc(O)cc1)c1cc2c(O)cc(O)cc2oc1=O` [Compound 8, 5,7-Dihydroxy-3-(4′-hydroxybenzoyl)coumarin] came in with a melting point of 290 to 292 °C. The compound also came in with a Ki in data set [1] of over 60 µM. Moreover, the Ki in data set [2] amounted to 29.1 µM.

The compound `COc1ccc(C(=O)c2cc3c(OC)cc(OC)cc3oc2=O)cc1` [Compound 4, 5,7-Dimethoxy-3-(4′-methoxybenzoyl)coumarin] came in with a melting point of 174 to 175 °C. In data set [1], this compound yielded a Ki of 2.49 µM. The same compound displayed a Ki in data set [2] of over 100 µM.

`COc1cc(OC)c2cc(C(=O)c3ccc(OC)c(OC)c3)c(=O)oc2c1` [Compound 3, 5,7-Dimethoxy-3-(3′,4′-dimethoxybenzoyl)coumarin] registered a melting point of 210 to 211 °C. The compound also displayed a Ki in data set [1] of 9.03 µM. In data set [2], this compound registered a Ki of over 30 µM.

As a reminder, the Ki is a measure of affinity in units of concentration, obtained from inhibition or displacement. A lower Ki goes with tighter binding. In general, melting point refers to the temperature, or range, at which the solid turns liquid. Usually Kd stands for the free concentration of one partner at which half of the binding sites on the other are occupied at equilibrium, for simple one-to-one binding.

Values taken from article PMC7571217, “Adenosine Receptor Ligands: Coumarin–Chalcone Hybrids as Modulating Agents on the Activity of hARs” (Molecules, 2020).
